Experimental data taken from US9279813B2, “Ex vivo flow cytometry method and device” (Purdue Research Foundation, priority 2006, dated 2016).

Molecular target: T1, cell surface folate receptors on folate receptor positive M109 cells (Mus musculus, UniProt P35846)
T1 construct: cell surface folate receptors on folate receptor positive M109 cells in culture; endogenous in cells; host or cells: M109 cells
Assay: Fluorescence measurement of binding to cell surface folate receptors on M109 cells in culture
Format: cell-based
Protocol: TEXAS RED C2-maleimide (Molecular Probes, Eugene, Oreg.) was dissolved in dimethyl sulfoxide (DMSO) (1 mg in 200 μl DMSO). A 1.4 molar equivalent (1 mg) of Folate-Cys was added to the solution and mixed for 4 hours at room temperature. Folate-Cys-TEXAS RED (Folate-TEXAS RED) was purified by reverse-phase HPLC on a C18 column at a flow rate of 1 ml/min. The mobile phase, consisting of 10 mM NH4HCO3 buffer, pH 7.0 (eluent A) and acetonitrile (eluent B), was maintained at a 99:1 A:B ratio for the first five minutes and then changed to 70:30 A:B in a linear gradient over the next 30 minutes followed by a 1:99 A:B linear gradient over the last 15 minutes. Folate-Cys-TEXAS RED eluted as two isomer peaks at 44.5 and 45.8 minutes. The product was confirmed by mass spectroscopy and the biologic activity was confirmed by fluorescence measurement of its binding to cell surface folate receptors on folate receptor positive M109 cells in culture.
ALEXAFLUOR 488 C5-maleimide (Molecular Probes, Eugene, Oreg.) was dissolved in dimethyl sulfoxide (DMSO) (0.5 mg in 50 μl DMSO). A 1.5 molar equivalent (0.57 mg) of Folate-Cys was added to the solution and mixed for 4 hours at room temperature. […] The product was confirmed by mass spectroscopy and the biologic activity was confirmed by fluorescence measurement of its binding to cell surface folate receptors on folate receptor positive M109 cells in culture.

T1 sequence (P35846 25-232): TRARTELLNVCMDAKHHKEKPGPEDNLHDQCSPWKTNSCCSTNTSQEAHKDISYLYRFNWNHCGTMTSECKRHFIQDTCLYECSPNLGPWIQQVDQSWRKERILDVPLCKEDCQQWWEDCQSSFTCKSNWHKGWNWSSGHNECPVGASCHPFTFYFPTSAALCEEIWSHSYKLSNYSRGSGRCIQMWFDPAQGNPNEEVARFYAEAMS

biologic activity: binding to cell surface folate receptors	SMILES
confirmed	N=c1ccc2c(-c3ccc(C(=O)NCCCCCN4C(=O)CC(SCC(NC(=O)CCC(NC(=O)c5ccc(NCc6cnc7nc(N)[nH]c(=O)c7n6)cc5)C(=O)O)C(=O)O)C4=O)cc3C(=O)O)c3ccc(N)c(S(=O)(=O)O)c3oc-2c1S(=O)(=O)O (centres unmarked) [Folate-Cys-ALEXAFLUOR 488]
confirmed	Nc1nc2ncc(CNc3ccc(C(=O)NC(CCC(=O)NC(CSC4CC(=O)N(CCNS(=O)(=O)c5ccc(C6=c7cc8c9c(c7Oc7c6cc6c%10c7CCCN%10CCC6)CCC[N+]=9CCC8)c(S(=O)(=O)O)c5)C4=O)C(=O)O)C(=O)O)cc3)nc2c(=O)[nH]1 (centres unmarked) [Folate-Cys-TEXAS RED]
